# Experimental data taken from patent US20240400555A1 (Initial Therapeutics, Inc., priority 2023, published 2024).
# Test system: MV-4-11 cells
# Experiment: Cell Viability Assay in MV-4-11 Cells
# Type: cell-based
# Conditions: Homo sapiens, MV4-11, 72 h
# How it was run: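 Luminescent ATP read-out (CellTiter-Glo) after 72 h compound treatment of MV-4-11 leukaemia cells (7,000 per well, IMDM plus 10% FBS). Values expressed relative to DMSO control and derived by four-parameter non-linear regression.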
row,Structure (SMILES),IC50 [nM]
1,"[2H]C([2H])([2H])c1nnc(-c2ccc(C(=O)N(c3nccc4scc(C)c34)[C@@H]3CCCNC3)c(F)c2)s1 [Example 780, 2-fluoro-N-(3-methylthieno[3,2-c]pyridin-4-yl)-N-[(3R)-3-piperidyl]-4-[5-(trideuteriomethyl)-1,3,4-thiadiazol-2-yl] benzamide]",120
2,"Cc1cccc2ccnc(N(C(=O)N3CCC[C@H](CCC(=O)Nc4ccccc4)C3)[C@@H]3CCCNC3)c12 [Example 344, N-(8-methylisoquinolin-1-yl)-3-(3-oxo-3-(phenylamino)propyl)-N—((R)-piperidin-3-yl) piperidine-1-carboxamide]",930
3,"CC(C)NC(=O)c1ccc2c(N(C(=O)c3ccc(-n4nnc5cccnc54)cc3F)[C@@H]3CCCNC3)nccc2c1 [Example 372, (R)-1-(4-(3H-[1,2,3]triazolo[4,5-b]pyridin-3-yl)-2-fluoro-N-(piperidin-3-yl)benzamido)-N-isopropylisoquinoline-6-carboxamide]",100
4,"NC(=O)/C=C/c1cccc2ccnc(N(C(=O)c3ccc(-n4nnc5cccnc54)cc3F)[C@@H]3CCCNC3)c12 [Example 320, N-[8-[(E)-3-amino-3-oxo-prop-1-enyl]-1-isoquinolyl]-2-fluoro-N-[(3R)-3-piperidyl]-4-(triazolo[4.5-b]pyridin-3-yl)benzamide]",5.6

# Same assay, conditions: Homo sapiens, MV4-11, 72 h, MV-4-11 cells, 72 h, Cell-Titer Glo; read-out: IC50
row,Structure (SMILES),IC50 [nM]
1,"O=C(c1ccc(-n2nnc3cccnc32)cc1F)N(c1nccc2cc(-c3nn[nH]c3CO)ccc12)[C@@H]1CCCNC1 [Example 530, (R)-4-(3H-[1,2,3]triazolo[4,5-b]pyridin-3-yl)-2-fluoro-N-(6-(5-(hydroxymethyl)-1H-1,2,3-triazol-4-yl)isoquinolin-1-yl)-N-(piperidin-3-yl)benzamide]",1600
2,"Cc1cc(F)cc2ccnc(N(C(=O)c3ccc(-c4nnc(O)s4)cc3F)[C@@H]3CCCNC3)c12 [Example 650, 2-fluoro-N-(6-fluoro-8-methyl-1-isoquinolyl)-4-(5-hydroxy-1,3,4-thiadiazol-2-yl)-N-[(3R)-3-piperidyl]benzamide]",3600
3,"Cn1cc(-c2ccc(C(=O)N(c3nccc4cc(-c5cccc(O)c5)ccc34)[C@@H]3CCCNC3)c(F)c2)nn1 [Example 495, (R)-2-fluoro-N-(6-(3-hydroxyphenyl)isoquinolin-1-yl)-4-(1-methyl-1H-1,2,3-triazol-4-yl)-N-(piperidin-3-yl)benzamide]",660
4,"Cc1nnc(-c2ccc(C(=O)N(c3nccc4sc(-c5ccc(C(N)=O)cc5)cc34)[C@@H]3CCCNC3)c(F)c2)s1 [Example 827, N-[2-(4-carbamoylphenyl)thieno[3,2-c]pyridin-4-yl]-2-fluoro-4-(5-methyl-1,3,4-thiadiazol-2-yl)-N-[(3R)-3-piperidyl]benzamide]",910
5,"O=C(O)c1ccc(-c2cc3c(N(C(=O)c4ccc(-n5nnc6cccnc65)cc4F)[C@@H]4CCCNC4)nccc3s2)cc1 [Example 379, 4-[4-[[2-fluoro-4-(triazolo[4,5-b]pyridin-3-yl)benzoyl]-[(3R)-3-piperidyl]amino]thieno[3,2-c]pyridin-2-yl]benzoic acid]",> 10000
6,"Cn1cc(-c2ccc(C(=O)N(c3nccc4sc(-c5ccc(C(=O)Nc6ccccc6)cc5)cc34)[C@@H]3CCCNC3)c(F)c2)nn1 [Example 523, 2-fluoro-4-(1-methyltriazol-4-yl)-N-[2-[4-(phenylcarbamoyl)phenyl]thieno[3,2-c]pyridin-4-yl]-N-[(3R)-3-piperidyl]benzamide]",920
7,"COc1ccc(C)c2c(N(C(=O)c3ccc(-c4cn(C)nn4)cc3)[C@@H]3CCCNC3)nccc12 [Example 872, N-(5-methoxy-8-methyl-1-isoquinolyl)-4-(1-methyltriazol-4-yl)-N-[(3R)-3-piperidyl]benzamide]",2100
8,"COC(=O)c1nc(-c2cc3c(N(C(=O)c4ccc(-n5nnc6cccnc65)cc4F)[C@@H]4CCCNC4)nccc3s2)cs1 [Example 429, methyl 4-[4-[[2-fluoro-4-(triazolo[4,5-b]pyridin-3-yl)benzoyl]-[(3R)-3-piperidyl]amino]thieno[3,2-c]pyridin-2-yl]thiazole-2-carboxylate]",1000
9,"O=C(c1ccc(-n2nnc3cccnc32)cc1F)N(c1nccc2cnccc12)[C@@H]1CCCNC1 [Example 849, (R)-4-(3H-[1,2,3]triazolo[4,5-b]pyridin-3-yl)-2-fluoro-N-(2,6-naphthyridin-1-yl)-N-(piperidin-3-yl)benzamide]",2600
10,"Cc1cc(Cl)cc2ccnc(N(C(=O)c3ccc(-c4cn(C)nn4)cc3F)[C@H]3CCCNC3)c12 [Example 621, (S)—N-(6-chloro-8-methylisoquinolin-1-yl)-2-fluoro-4-(1-methyl-1H-1,2,3-triazol-4-yl)-N-(piperidin-3-yl)benzamide]",4100

# Next, values leading:
row,IC50 [nM],Structure (SMILES)
1,56,"Cc1cc(C)c2c(N(C(=O)c3ccc(-c4nnc(C)s4)cc3F)[C@@H]3CCCNC3)nccc2c1 [Example 641, (R)—N-(6,8-dimethylisoquinolin-1-yl)-2-fluoro-4-(5-methyl-1,3,4-thiadiazol-2-yl)-N-(piperidin-3-yl)benzamide]"
2,63,"Nc1ccc(-c2cc3c(N(C(=O)c4ccc(-n5nnc6cccnc65)cc4F)[C@@H]4CCCNC4)nccc3s2)cc1 [Example 412, N-[2-(4-aminophenyl)thieno[3,2-c]pyridin-4-yl]-2-fluoro-N-[(3R)-3-piperidyl]-4-(triazolo[4,5-b]pyridin-3-yl)benzamide]"
3,55,"COCc1nnc(-c2ccc(C(=O)N(c3nccc4cc(F)cc(C)c34)[C@@H]3CCCNC3)c(F)c2)s1 [Example 853, 2-fluoro-N-(6-fluoro-8-methyl-1-isoquinolyl)-4-[5-(methoxymethyl)-1,3,4-thiadiazol-2-yl]-N-[(3R)-3-piperidyl]benzamide]"
4,390,"O=C(c1ccc(-n2nnc3cccnc32)cc1F)N(c1nccc2sc(C#Cc3ccncc3)cc12)[C@@H]1CCCNC1 [Example 411, 2-fluoro-N-[(3R)-3-piperidyl]-N-[2-[2-(4-pyridyl)ethynyl]thieno[3,2-c]pyridin-4-yl]-4-(triazolo[4,5-b]pyridin-3-yl)benzamide]"
5,67,"Cc1cccc2ccnc(N(C(=O)c3ccc(-c4cnn(C)c4)c(-c4cnn(C)c4)c3)[C@@H]3CCCNC3)c12 [Example 326, (R)-3,4-bis(1-methyl-1H-pyrazol-4-yl)-N-(8-methylisoquinolin-1-yl)-N-(piperidin-3-yl) benzamide]"
6,92,"Cc1csc2ccnc(N(C(=O)c3ccc(-c4cc(Cl)cnn4)cc3F)[C@@H]3CCCNC3)c12 [Example 768, (R)-4-(5-chloropyridazin-3-yl)-2-fluoro-N-(3-methylthieno[3,2-c]pyridin-4-yl)-N-(piperidin-3-yl)benzamide]"
7,63,"Cc1cc(-c2cc3c(N(C(=O)c4ccc(-n5nnc6cccnc65)cc4F)[C@@H]4CCCNC4)nccc3s2)cc(C)n1 [Example 571, N-[2-(2,6-dimethyl-4-pyridyl)thieno[3,2-c]pyridin-4-yl]-2-fluoro-N-[(3R)-3-piperidyl]-4-(triazolo[4,5-b]pyridin-3-yl)benzamide]"
8,230,"Cc1cccc2ccnc(N(C(=O)c3ccc(Nc4nccc(N5CCC(N6CCCC6)CC5)n4)cc3F)[C@@H]3CCCNC3)c12 [Example 715, (R)-2-fluoro-N-(8-methylisoquinolin-1-yl)-N-(piperidin-3-yl)-4-((4-(4-(pyrrolidin-1-yl)piperidin-1-yl)pyrimidin-2-yl)amino)benzamide]"
9,110,"Cc1ccc(F)c2ccnc(N(C(=O)c3ccc(-c4cnn5cccnc45)cc3F)[C@@H]3CCCNC3)c12 [Example 626, (R)-2-fluoro-N-(5-fluoro-8-methylisoquinolin-1-yl)-N-(piperidin-3-yl)-4-(pyrazolo[1,5-a]pyrimidin-3-yl)benzamide]"
10,130,"[2H]C([2H])([2H])c1nnc(-c2ccc(C(=O)N(c3nccc4cc(F)cc(C)c34)[C@@H]3CCCNC3)c(F)c2)s1 [Example 767, 2-fluoro-N-(6-fluoro-8-methyl-1-isoquinolyl)-N-[(3R)-3-piperidyl]-4-[5-(trideuteriomethyl)-1,3,4-thiadiazol-2-yl]benzamide]"
11,140,"COC/C=C/c1ccnc(Nc2ccc(C(=O)N(c3nccc4cccc(C)c34)[C@@H]3CCCNC3)c(F)c2)n1 [Example 749, (R,E)-2-fluoro-4-((4-(3-methoxyprop-1-en-1-yl)pyrimidin-2-yl)amino)-N-(8-methylisoquinolin-1-yl)-N-(piperidin-3-yl)benzamide]"
12,89,"Cc1cc(-c2cc3c(N(C(=O)c4ccc(-n5nnc6cccnc65)cc4F)[C@@H]4CCCNC4)nccc3s2)ccc1C(N)=O [Example 572, 4-[4-[[2-fluoro-4-(triazolo [4,5-b]pyridin-3-yl)benzoyl]-[(3R)-3-piperidyl]amino]thieno [3,2-c]pyridin-2-yl]-2-methyl-benzamide]"
13,430,"Cc1nnc(-c2ccc3c(N(C(=O)c4ccc(-n5nnc6cccnc65)cc4F)[C@@H]4CCCNC4)nccc3c2)s1 [Example 576, (R)-4-(3H-[1,2,3]triazolo[4,5-b]pyridin-3-yl)-2-fluoro-N-(6-(5-methyl-1,3,4-thiadiazol-2-yl)isoquinolin-1-yl)-N-(piperidin-3-yl)benzamide]"
14,260,"Cn1cc(-c2ccc(C(=O)N(c3nccc4sc(-c5ccccc5)cc34)[C@@H]3CCCNC3)c(F)c2)nn1 [Example 510, 2-fluoro-4-(1-methyltriazol-4-yl)-N-(2-phenylthieno[3,2-c]pyridin-4-yl)-N-[(3R)-3-piperidyl]benzamide]"
15,130,"CCC(C)N(C)c1ccnc(Nc2ccc(C(=O)N(c3nccc4cccc(C)c34)[C@@H]3CCCNC3)c(F)c2)n1 (stereo partly drawn) [Example 952, 4-((4-(sec-butyl(methyl)amino)pyrimidin-2-yl)amino)-2-fluoro-N-(8-methylisoquinolin-1-yl)-N—((R)-piperidin-3-yl)benzamide]"
16,220,"O=Cc1cccc(-c2cc3c(N(C(=O)c4ccc(-n5nnc6cccnc65)cc4F)[C@@H]4CCCNC4)nccc3s2)c1 [Example 467, 2-fluoro-N-[2-(3-formylphenyl)thieno[3,2-c]pyridin-4-yl]-N-[(3R)-3-piperidyl]-4-(triazolo[4,5-b]pyridin-3-yl)benzamide]"
